Values of other authors in paper PMC7383075 (Journal of Nuclear Medicine, 2020).

Assays:
insulinomas = details: at the proper dilution; ref [23]
From the text: A targeted approach, as described in this study, has the benefit of creating signals with higher contrast between the target and surrounding tissue and therefore more precise delineation of the lesion. […] Re ...

[1] = system: primary breast cancer lesions, as well as peritoneal metastases of colorectal cancer; details: primary breast cancer lesions and peritoneal metastases of colorectal cancer; ref [29],[30]
From the text: Contributing to the potential for clinical translation of this tracer is the use of the NIR fluorophore IRDye 800CW. This dye is widely used in the development of targeted fluorescence imaging approaches, and several studies already have shown the first successful clinical applications using this fluorophore. […] Also, IRDye 800CW coupled to the monoclonal antibody cetuximab was successfully used fo ...

For `CN(C)c1ccc2nc3ccc(=[N+](C)C)cc-3sc2c1` [methylene blue], the “uptake in insulinomas versus normal pancreatic tissue” value (insulinomas) is listed as “higher uptake in insulinomas than in normal pancreatic tissue”.

In the case of “IRDye 800CW coupled to the monoclonal antibody bevacizumab: IRDye 800CW coupled to the monoclonal antibody bevacizumab”, the “detection of cancer lesions” value [1] is listed as “shown to be feasible”.
